This experiment concerns the target Polyphenol oxidase 1 [N65D,S176D,K211T,P277A,P406L] (Agaricus bisporus var. bisporus (strain H97 / ATCC MYA-4626 / FGSC 10389), UniProt Q00024, K211T/N65D/P277A/P406L/S176D). Put plainly: Enzymatic Activity Assay. The following applies: pH 6.8. The method, then:
The mushroom tyrosinase inhibition activity of hydroxy naphthylchalcone compounds was measured using L-DOPA as substrate. The activity assay used 3 ml of reaction medium containing 0.5 mM L-DOPA in 50 mM Na2HPO4-NaH2PO4 buffer (pH 6.8). […] The substrate reaction progress curve was analyzed to obtain the reaction rate constants. The reaction was carried out at 30 °C and pH 6.8.

`O=C(/C=C/c1ccc([N+](=O)[O-])cc1O)c1cc2ccccc2cc1O` [(2E)-1-(3-hydroxynaphthalen-2-yl)-3-(2-hydroxy-4-nitrophenyl) prop-2-en-1-one (3b)] gave an IC50 of 22.9 µM and a Ki of 11.2 µM.

Consider `O=C(/C=C/c1ccc(O)c([N+](=O)[O-])c1)c1cc2ccccc2cc1O` [(2E)-1-(3-hydroxynaphthalen-2-yl)-3-(4-hydroxy-3-nitrophenyl) prop-2-en-1-one (4b)], for which half-maximal inhibition (IC50) required 25.6 µM and the Ki was 11.9 µM.

For the molecule `O=C(/C=C/c1ccc(O)cc1O)c1cc2ccccc2cc1O` [(2E)-3-(2,4-dihydroxyphenyl)-1-(3-hydroxynaphthalen-2-yl) prop-2-en-1-one (2b)], 14.4 µM corresponded to half-maximal inhibition (IC50) and the Ki turned out to be 4.5 µM.

The molecule `O=C(/C=C/c1cc(O)ccc1O)c1cc2ccccc2cc1O` [(2E)-3-(2,5-dihydroxyphenyl)-1-(3-hydroxynaphthalen-2-yl) prop-2-en-1-one (1b)] had a half-maximal inhibitory concentration (IC50) of 20.4 µM and a Ki of 10.8 µM.

On to `O=C(/C=C/c1cc(O)cc(O)c1)c1cc2ccccc2cc1O` [(2E)-3-(3,5-dihydroxyphenyl)-1-(3-hydroxynaphthalen-2-yl)prop-2-en-1-one (5b)], for which it took 10.4 µM to reach half-maximal inhibition (IC50) and the affinity corresponds to a Ki of 3.8 µM.

The record behind these values is BindingDB's records for doi:10.1016/j.bioorg.2015.10.003 (University of Technology Sydney, 2015).
